# Measured values: US20240400555A1 (Initial Therapeutics, Inc., priority 2023, published 2024)
# Where two headings read alike, the source gives them in different places.
# Test system: MV-4-11 cells
# Assay: Cell Viability Assay in MV-4-11 Cells
# Format: cell-based
# Settings: Homo sapiens, MV4-11, 72 h
# Summary of the method: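 Luminescent ATP read-out (CellTiter-Glo) after 72 h compound treatment of MV-4-11 leukaemia cells (7,000 per well, IMDM plus 10% FBS). Values expressed relative to DMSO control and derived by four-parameter non-linear regression.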
# [1] = MV-4-11 cells, 72 h, Cell-Titer Glo, read-out: IC50
Compound,IC50 [1] [µM],IC50 [µM]
"Nc1cc(-c2cc3c(N(C(=O)c4ccc(-n5nnc6cccnc65)cc4F)[C@@H]4CCCNC4)nccc3s2)ccn1 [Example 383, N-[2-(2-amino-4-pyridyl)thieno[3,2-c]pyridin-4-yl]-2-fluoro-N-[(3R)-3-piperidyl]-4-(triazolo[4,5-b]pyridin-3-yl)benzamide]",0.2,
"O=C(c1ccc(-n2nnc3cccnc32)cc1F)N(c1nccc2cc(-c3ccncc3)sc12)[C@@H]1CCCNC1 [Example 384, 2-fluoro-N-[(3R)-3-piperidyl]-N-[2-(4-pyridyl)thieno[2,3-c]pyridin-7-yl]-4-(triazolo[4,5-b]pyridin-3-yl)benzamide]",0.11,
"COc1cccc(-c2cc3c(N(C(=O)c4ccc(-n5nnc6cccnc65)cc4F)[C@@H]4CCCNC4)nccc3s2)c1 [Example 385, (R)-4-(3H-[1,2,3]triazolo[4,5-b]pyridin-3-yl)-2-fluoro-N-(2-(3-methoxyphenyl)thieno[3,2-c]pyridin-4-yl)-N-(piperidin-3-yl)benzamide]",0.52,
"N#Cc1cc(-c2cc3c(N(C(=O)c4ccc(-n5nnc6cccnc65)cc4F)[C@@H]4CCCNC4)nccc3s2)ccn1 [Example 386, N-[2-(2-cyano-4-pyridyl)thieno[3,2-c]pyridin-4-yl]-2-fluoro-N-[(3R)-3-piperidyl]-4-(triazolo[4,5-b]pyridin-3-yl)benzamide]",0.33,
"N#Cc1ccc(-c2cc3c(N(C(=O)c4ccc(-n5nnc6cccnc65)cc4F)[C@@H]4CCCNC4)nccc3s2)cc1 [Example 387, N-[2-(4-cyanophenyl)thieno[3,2-c]pyridin-4-yl]-2-fluoro-N-[(3R)-3-piperidyl]-4-(triazolo[4,5-b]pyridin-3-yl)benzamide]",0.3,
"Cc1cccc2ccnc(N(C(=O)c3ccc(-c4cnn(C)c4N)cc3F)[C@@H]3CCCNC3)c12 [Example 388, 4-(5-amino-1-methyl-pyrazol-4-yl)-2-fluoro-N-(8-methyl-1-isoquinolyl)-N-[(3R)-3-piperidyl]benzamide]",0.076,
"Cc1nc(-c2ccc(C(=O)N(c3nccc4cccc(C)c34)[C@@H]3CCCNC3)c(F)c2)c(N)[nH]1 [Example 389, 4-(5-amino-2-methyl-1H-imidazol-4-yl)-2-fluoro-N-(8-methyl-1-isoquinolyl)-N-[(3R)-3-piperidyl]benzamide]",> 10,
"Cc1cccc2ccnc(N(C(=O)c3ccc(-c4nn(C)nc4Br)cc3F)[C@@H]3CCCNC3)c12 [Example 390, 4-(5-bromo-2-methyl-triazol-4-yl)-2-fluoro-N-(8-methyl-1-isoquinolyl)-N-[(3R)-3-piperidyl] benzamide]",0.24,
"Cc1cccc2ccnc(N(C(=O)c3ccc(-c4cn(C)nc4N)cc3F)[C@@H]3CCCNC3)c12 [Example 391, 4-(3-amino-1-methyl-pyrazol-4-yl)-2-fluoro-N-(8-methyl-1-isoquinolyl)-N-[(3R)-3-piperidyl] benzamide]",> 10,
"Cc1nn(C)c(-c2ccc(C(=O)N(c3nccc4cccc(C)c34)[C@@H]3CCCNC3)c(F)c2)c1N [Example 392, 4-(4-amino-2,5-dimethyl-pyrazol-3-yl)-2-fluoro-N-(8-methyl-1-isoquinolyl)-N-[(3R)-3-piperidyl]benzamide]",0.84,
"Cc1cn(-c2ccc(C(=O)N(c3nccc4cccc(Cl)c34)[C@@H]3CCCNC3)c(F)c2)nn1 [Example 393, (R)—N-(8-chloroisoquinolin-1-yl)-2-fluoro-4-(4-methyl-1H-1,2,3-triazol-1-yl)-N-(piperidin-3-yl)benzamide]",0.15,
"Cc1nnc(-c2ccc(C(=O)N(c3nccc4cccc(C)c34)[C@@H]3CCCNC3)c(F)c2)o1 [Example 394, (R)-2-fluoro-4-(5-methyl-1,3,4-oxadiazol-2-yl)-N-(8-methylisoquinolin-1-yl)-N-(piperidin-3-yl)benzamide]",0.14,
"Cn1nnc(-c2ccc(C(=O)N(c3nccc4cc(-c5cn[nH]c5)ccc34)[C@@H]3CCCNC3)cc2)n1 [Example 395, (R)—N-(6-(1H-pyrazol-4-yl)isoquinolin-1-yl)-4-(2-methyl-2H-tetrazol-5-yl)-N-(piperidin-3-yl)benzamide]",,0.23
"C#Cc1ccc2c(N(C(=O)c3ccc(-n4nnc5cccnc54)cc3F)[C@@H]3CCCNC3)nccc2c1 [Example 396, (R)-4-(3H-[1,2,3]triazolo[4,5-b]pyridin-3-yl)-N-(6-ethynylisoquinolin-1-yl)-2-fluoro-N-(piperidin-3-yl)benzamide]",0.15,
"O=C(c1ccc(Nc2ncccn2)cc1F)N(c1nccc2cc(-c3cccnc3)ccc12)[C@@H]1CCCNC1 [Example 397, (R)-2-fluoro-N-(piperidin-3-yl)-N-(6-(pyridin-3-yl)isoquinolin-1-yl)-4-(pyrimidin-2-ylamino)benzamide]",0.46,
"O=C(c1ccc(-n2nnc3cccnc32)cc1F)N(c1nccc2cc(C#CCO)ccc12)[C@@H]1CCCNC1 [Example 398, (R)-4-(3H-[1,2,3]triazolo[4,5-b]pyridin-3-yl)-2-fluoro-N-(6-(3-hydroxyprop-1-yn-1-yl)isoquinolin-1-yl)-N-(piperidin-3-yl)benzamide]",,0.071

Compound,IC50 [1] [µM],IC50 [µM]
"C=CC(=O)NC1CCCN(C(=O)N(c2nccc3cccc(C)c23)[C@@H]2CCCNC2)C1 (stereo partly drawn) [Example 399, 3-acrylamido-N-(8-methylisoquinolin-1-yl)-N—((R)-piperidin-3-yl)piperidine-1-carboxamide]",1.1,
"COC(=O)c1ccnc(Nc2ccc(C(=O)N(c3nccc4cccc(C)c34)[C@@H]3CCCNC3)c(F)c2)n1 [Example 400, methyl (R)-2-((3-fluoro-4-((8-methylisoquinolin-1-yl)(piperidin-3-yl)carbamoyl)phenyl)amino)pyrimidine-4-carboxylate]",2.4,
"Cc1cccc2ccnc(N(C(=O)c3ccc(Nc4nccc(C(=O)O)n4)cc3F)[C@@H]3CCCNC3)c12 [Example 401, (R)-2-((3-fluoro-4-((8-methylisoquinolin-1-yl)(piperidin-3-yl)carbamoyl)phenyl)amino)pyrimidine-4-carboxylic acid]",> 10,
"Cc1cccc2ccnc(N(C(=O)c3ccc(Nc4nccc(C(N)=O)n4)cc3F)[C@@H]3CCCNC3)c12 [Example 402, (R)-2-((3-fluoro-4-((8-methylisoquinolin-1-yl)(piperidin-3-yl)carbamoyl)phenyl)amino)pyrimidine-4-carboxamide]",0.29,
"Cn1cc(-c2ccc(C(=O)N(c3nccc4cccc(CCc5cccnc5)c34)[C@@H]3CCCNC3)cc2)nn1 [Example 403, 4-(1-methyltriazol-4-yl)-N-[(3R)-3-piperidyl]-N-[8-[2-(3-pyridyl)ethyl]-1-isoquinolyl]benzamide]",2.1,
"Cn1cc(-c2ccc(C(=O)N(c3nccc4cc(-c5nnn[nH]5)ccc34)[C@@H]3CCCNC3)c(F)c2)nn1 [Example 405, (R)—N-(6-(1H-tetrazol-5-yl)isoquinolin-1-yl)-2-fluoro-4-(1-methyl-1H-1,2,3-triazol-4-yl)-N-(piperidin-3-yl)benzamide]",7.8,
"O=C(O)/C=C/c1ccc2c(N(C(=O)c3ccc(-n4nnc5cccnc54)cc3F)[C@@H]3CCCNC3)nccc2c1 [Example 406, (R,E)-3-(1-(4-(3H-[1,2,3]triazolo[4,5-b]pyridin-3-yl)-2-fluoro-N-(piperidin-3-yl)benzamido)isoquinolin-6-yl)acrylic acid]",> 10,
O=C(O)CCc1ccc2c(N(C(=O)c3ccc(-n4nnc5cccnc54)cc3F)[C@@H]3CCCNC3)nccc2c1 [Example 407],> 10,
"Cc1cccc2ccnc(N(C(=O)c3ccc(Nc4nccc(N5CCOCC5)n4)cc3F)[C@@H]3CCCNC3)c12 [Example 408, (R)-2-fluoro-N-(8-methylisoquinolin-1-yl)-4-((4-morpholinopyrimidin-2-yl)amino)-N-(piperidin-3-yl)benzamide]",0.0053,
"Cc1cccc2ccnc(N(C(=O)c3ccc(Nc4ncc(F)cn4)cc3F)[C@@H]3CCCNC3)c12 [Example 409, (R)-2-fluoro-4-((5-fluoropyrimidin-2-yl)amino)-N-(8-methylisoquinolin-1-yl)-N-(piperidin-3-yl)benzamide]",0.054,
"Cc1cccc2ccnc(N(C(=O)c3ccc(Nc4ncc(N)cn4)cc3F)[C@@H]3CCCNC3)c12 [Example 410, (R)-4-((5-aminopyrimidin-2-yl)amino)-2-fluoro-N-(8-methylisoquinolin-1-yl)-N-(piperidin-3-yl)benzamide]",0.19,
"O=C(c1ccc(-n2nnc3cccnc32)cc1F)N(c1nccc2sc(C#Cc3ccncc3)cc12)[C@@H]1CCCNC1 [Example 411, 2-fluoro-N-[(3R)-3-piperidyl]-N-[2-[2-(4-pyridyl)ethynyl]thieno[3,2-c]pyridin-4-yl]-4-(triazolo[4,5-b]pyridin-3-yl)benzamide]",0.39,
"Nc1ccc(-c2cc3c(N(C(=O)c4ccc(-n5nnc6cccnc65)cc4F)[C@@H]4CCCNC4)nccc3s2)cc1 [Example 412, N-[2-(4-aminophenyl)thieno[3,2-c]pyridin-4-yl]-2-fluoro-N-[(3R)-3-piperidyl]-4-(triazolo[4,5-b]pyridin-3-yl)benzamide]",0.063,
"NS(=O)(=O)c1ccc(-c2cc3c(N(C(=O)c4ccc(-n5nnc6cccnc65)cc4F)[C@@H]4CCCNC4)nccc3s2)cc1 [Example 414, 2-fluoro-N-[(3R)-3-piperidyl]-N-[2-(4-sulfamoylphenyl)thieno[3,2-c]pyridin-4-yl]-4-(triazolo[4,5-b]pyridin-3-yl)benzamide]",0.22,
"CC(C)Cn1cc(-c2cc3c(N(C(=O)c4ccc(-n5nnc6cccnc65)cc4F)[C@@H]4CCCNC4)nccc3s2)nn1 [Example 415, 2-fluoro-N-[2-(1-isobutyltriazol-4-yl)thieno[3,2-c]pyridin-4-yl]-N-[(3R)-3-piperidyl]-4-(triazolo[4,5-b]pyridin-3-yl)benzamide]",1.2,
"O=C(c1ccc(-n2nnc3cccnc32)cc1F)N(c1nccc2sc(-c3cscn3)cc12)[C@@H]1CCCNC1 [Example 416, 2-fluoro-N-[(3R)-3-piperidyl]-N-(2-thiazol-4-ylthieno[3,2-c]pyridin-4-yl)-4-(triazolo[4,5-b]pyridin-3-yl)benzamide]",0.18,
